According to US20260294946A1, “METHOD TO REDUCE FEED CONVERSION RATIO IN A FARMED ANIMAL” (Inbiose N.V., priority 2023, published 2026):

Tests used:
Format in all cases: in vivo
Prevotella Sp. RS2 = assay: Fecal samples of piglets, 16S rRNA sequencing
Method: (§1) On d22, from one piglet per pen (piglet with median weight at weaning) a fresh feces sample was collected and stored at −80° C. Total fecal DNA of 16 selected piglets (1 per pen) were extracted from 200 mg feces. ZymoBIOMICS™ DNA miniprep kit (Zymo Research) in combination with a FASTPREP® 24 device was used to extract and purify the microbial DNA as instructed by the manufacturer. Purified total DNA were eluted in 100 μl and were quickly checked for the concentration and quality using Nanodrop (Implen NANOPHOTOMETER®) before storage at −20° C.
(§2) Total DNA were submitted to Eurofins (GATC, Germany) to perform 16S rRNA sequencing using their INVIEW microbiome high specificity package. Briefly, total DNA were first amplified the hyper-variable regions 16S and integrated the barcodes through PCR. The PCR products were purified, then ligated with adapter for library preparation. The sequencing was done using PacBio sequencing technology, guaranteed for 25000 reads, mean read length […].
(§3) Amplicon analysis was performed using Mothur pipeline (mothur.org). Processing of the raw sequencing data was done according to the Mothur standard operating procedure (mothur.org/wiki/MiSeq_SOP). Alignment was accomplished using DAIRYdb 16S rRNA gene database (GitHub—marcomeola/DAIRYdb). Sequences were classified and any sequences classified as Chloroplast, Mitochondria, unknown, Archaea, or Eukaryota were removed from the data set. Preclustering of the sequences and removal of chimeric sequences using a Mothur-formatted version of the Ribosomal Database Project (RDP) training set and uchime, based on the Mothur protocol. Sequences were classified into Operational Taxonomic Units (OTUs) of ≥97% sequence identity. Singleton and doubleton reads were removed.
(§4) Data statistics of 16S data and figure plotting were performed in RStudio (rstudio.com/). Microbiome data was normalized in relative abundance or cpm (counts per million). The treatment effect of 2′FL in the microbiome abundance data was evaluated on normalized relative abundance (in %) using Mann-Whitney U test.

Lactobacillus mucosae = assay: Fecal samples of piglets, 16S rRNA sequencing
Method: as §1, §2, §3, §4

Blautia obeum = assay: Fecal samples of piglets, 16S rRNA sequencing
Method: as §1, §2, §3, §4

[1] = system: Faecalibacterium prausnitzii; assay: Fecal samples of piglets, 16S rRNA sequencing
Method: as §1, §2, §3, §4

[2] = Feed conversion ratio of a farm animal (general statement); conditions: administered to a farm animal

Question: With 2′-fucosyllactose [2′FL] as the substance, how does the effect on abundance (Prevotella Sp. RS2; d 22) read?
Answer: Its effect on abundance is “inhibited”.

Question: What about the “Relative abundance in fecal samples” value (Prevotella Sp. RS2; weaning day (d 22), P=0.0129 vs control) of the same substance?
Answer: The value was 0.1093%.

Question: And the effect on abundance (Lactobacillus mucosae; d 22)?
Answer: Its effect on abundance is “promoted”.

Question: What about the “Relative abundance in fecal samples” value (Lactobacillus mucosae; weaning day (d 22), P=0.0263 vs control) of the same substance?
Answer: Its value is 0.1586%.

Question: And the effect on abundance (Blautia obeum; d 22)?
Answer: Its effect on abundance is “promoted”.

Question: What about the “Relative abundance in fecal samples” value (Blautia obeum; weaning day (d 22), P=0.0428 vs control) of the same substance?
Answer: Its value is 0.1672%.

Question: What about the effect on abundance ([1]; d 22) of the same substance?
Answer: Its effect on abundance is “promoted”.

Question: And the “Relative abundance in fecal samples” value ([1]; weaning day (d 22), P=0.00965 vs control)?
Answer: Its value is 0.278%.

Question: What about the “decrease of the feed conversion ratio” value [2] of the same substance?
Answer: Its value is “strong decrease”.
